Results from PMC4668926 (Biochemistry, 2015).

Assays:
[1] = target: T1, KPR (ketopantoate reductase) (Staphylococcus aureus, UniProt A0A0J9X283); experiment: FRET titration, Trp167 to bound NADPH; assay type: binding
T1 sequence (A0A0J9X283 1-286): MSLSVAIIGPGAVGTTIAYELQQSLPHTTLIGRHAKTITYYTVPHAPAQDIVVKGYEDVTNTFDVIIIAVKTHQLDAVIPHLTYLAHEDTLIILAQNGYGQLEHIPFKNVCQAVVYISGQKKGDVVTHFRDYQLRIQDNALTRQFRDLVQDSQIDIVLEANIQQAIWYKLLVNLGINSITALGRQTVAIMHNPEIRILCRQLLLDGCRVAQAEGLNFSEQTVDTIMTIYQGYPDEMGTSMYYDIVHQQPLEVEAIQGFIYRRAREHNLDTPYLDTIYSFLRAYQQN

[2] = target: Staphylococcus aureus ketopantoate reductase (Staphylococcus aureus); experiment: AUC

Compound | Kd [1] [nM] | stoichiometry N [2]
NC(=O)C1=CN([C@@H]2O[C@H](COP(=O)(O)OP(=O)(O)OC[C@H]3O[C@@H](n4cnc5c(N)ncnc54)[C@H](OP(=O)(O)O)[C@@H]3O)[C@@H](O)[C@H]2O)C=CC1 [NADPH] | 58 ± 2 | 
Staphylococcus aureus ketopantoate reductase (enzyme) |  | 2
